Reference: patent US12090149B2, “SMAD3 inhibitors” (Moexa Pharmaceuticals Limited, priority 2018, dated 2024)
Several values for one entry are separate records, joined by “and”; a condition that tells them apart may be missing. Equal values may be shown once. Entries after “also recorded” stand apart in the source; their conditions may differ.

Columns and labels:
Solubility in DMSO = assay type: physicochemical
B16-F10 syngeneic model = test: Subcutaneous B16-F10 syngeneic model, tumor growth; assay type: in vivo, C57BL/6 mice
Procedure: In order to evaluate the in vivo efficacy of SIS3 and novel compounds of the present invention, a study has been conducted in treatment of the subcutaneous B16-F10 syngeneic models.
• Animal species and strain: C57BL/6 mice • History of treatment: Naive • Sex, age and weight: Female, 6-8 weeks • Breeder/supplier: Shanghai SLAC Laboratory Animal Co. Ltd • Adaptation: At least 7 days • Room: SPF Room • Room temperature: 20-26° C. • Room relative humidity: 40-70% • Light cycle: Fluorescent light for 12-hour light (08:00-20:00) and 12-hour dark • Animal hosting: 2-5 mice/cage each group • Food: Free access to food • Water: Free access to water (municipal tap water filtered by reverse osmosis or high-pressure sterilizer)
B16-F10 cell was maintained at 37° C. under 5% CO2 in DMEM medium supplemented with 10% FBS and were subsequently cultured within 10 passages before inoculated into the mice.
B16-F10 cells (3×10^5 in 100 μL of serum-free medium) were inoculated to each of C57BL/6 mice via s.c. under anesthesia by 3-4% isoflurane. Each group contains 15 mice.
When average tumor volume reached 35-60 mm^3, 15 mice were randomized into group 6. The day of inoculation was denoted as day 0.
Tumor dimensions were measured on Day 4, 5, 6, 8, 11, 13, 15 and 18, after inoculation in 2 dimensions with calipers.
When required, tumor volume was measured daily. The tumor volume (V) was calculated as follows: V=(length×width^2)/2.
The individual relative tumor volume (RTV) was calculated as follows: RTV=Vt/V0, where Vt was the volume on each day, and V0 was the volume at the beginning of the treatment.
Tumor growth inhibition (TGI), TGI=(1−(Ti−T0)/(Ci−C0))×100%; Ti and Ci as the mean tumor volumes of the treatment and control groups on the measurement day; T0 and C0 as the mean tumor volumes of the treatment and control groups on day 0
Results were expressed as mean±S.E.M. Comparisons between two groups were made by Dunnett's multi-comparison test, p<0.05 were considered as significant.

CYP3A4 = CYP3A4 (Homo sapiens, UniProt P08684); test: Cytochrome P450 inhibition assay, human liver microsomes, CYP3A4; conditions: human
[1] = tested on: TGFβ/Smad Signaling Pathway SBE Reporter—HEK293 Cell Line; test: TGFβ/Smad SBE reporter luciferase assay in HEK293 cells stimulated with human TGFβ1; assay type: cell-based; conditions: Homo sapiens, 4 h compound, then TGFβ1 20 ng/ml ~18 h
Procedure: • 1. TGFβ/Smad Signaling Pathway SBE Reporter—HEK293 Cell Line BPS Bioscience Catalog #: 60653 • 2. Human TGFβ1 (BPS Bioscience #90900-1) • 3. SIS3 (Sigma #S0447): inhibitor of TGFβ pathway. Prepare stock soln. in DMSO • 4. Growth medium: MEM medium (Invitrogen #11095-080)+10% FBS (ATCC #30-2020)+1% non-essential amino acids (Lonza #13-114E)+1 mM Na pyruvate (Lonza #13-115E)+1% Penicillin/Streptomycin (ATCC #30-2300)+400 μg/ml of Geneticin (Invitrogen #11811-031) • 5. Assay medium: MEM medium+0.5% FBS+1% non-essential amino acids+1 mM Na pyruvate+1% Pen/Strep • 6. 96-well tissue culture-treated white clear-bottom assay plate (Corning #3610) • 7. ONE-Step™ Luciferase Assay System (BPS, Cat. #60690)
SBE reporter-HEK293 cells were harvested from culture in growth medium and seeded at a density of ˜10,000 cells per well into a white clear-bottom 96-well microplate in 100 μl of assay medium. The plate containing cells was incubated at 37° C. in a CO2 incubator. 24 h after seeding, cells were washed with 100 μL of assay buffer and treated with three-fold serial dilution of compounds in 50 μl assay medium. […]
After 18 h of incubation, Luciferase assay was performed using ONE-Step™ Luciferase Assay System according to the protocol provided: 50 μl of ONE-Step™ Luciferase reagent was added per well and shook at room temperature for […]. Luminescence was measured using a luminometer.

[2] = single agent, i.p. QD*3 weeks, SIS3 10 and 30 mg/kg, MO-00005 10, 30 and 100 mg/kg, vs vehicle

Chain of CYP3A4 (P08684 whole entry): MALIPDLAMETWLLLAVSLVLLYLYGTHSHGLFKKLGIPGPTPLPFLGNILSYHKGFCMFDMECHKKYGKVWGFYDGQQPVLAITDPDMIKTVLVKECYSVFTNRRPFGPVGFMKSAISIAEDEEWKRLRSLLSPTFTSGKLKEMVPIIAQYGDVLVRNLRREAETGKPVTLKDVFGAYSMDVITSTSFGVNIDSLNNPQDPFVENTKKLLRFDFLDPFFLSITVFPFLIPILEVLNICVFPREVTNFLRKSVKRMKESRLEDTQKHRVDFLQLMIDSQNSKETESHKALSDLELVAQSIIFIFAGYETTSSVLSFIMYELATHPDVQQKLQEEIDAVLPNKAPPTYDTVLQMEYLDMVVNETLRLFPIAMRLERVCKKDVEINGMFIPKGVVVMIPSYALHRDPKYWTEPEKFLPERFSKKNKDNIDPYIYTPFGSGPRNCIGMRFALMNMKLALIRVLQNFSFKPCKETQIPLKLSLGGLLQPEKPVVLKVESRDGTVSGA

## COc1cc2c(cc1OC)CN(C(=O)/C=C/c1c(-c3ccccc3)nc3ccccn13)CC2 [Compound 8, (E)-1-(6,7-dimethoxy-3,4-dihydroisoquinolin-2(1H)-yl)-3-(2-phenylimidazo[1,2-a]pyridin-3-yl)prop-2-en-1-one]
Solubility in DMSO
  soluble in DMSO: soluble
B16-F10 syngeneic model; 10 mg/kg q.d. * 3W i.p., Day 4 (estimated value)
  Tumor Sizes (mm3) Mean: 0.62 mm3
B16-F10 syngeneic model; 10 mg/kg q.d. * 3W i.p., Day 4, RTV=Vt/V0
  Relative tumor volume Mean: 0.04
B16-F10 syngeneic model; 10 mg/kg q.d. * 3W i.p., Day 5 (estimated value)
  Tumor Sizes (mm3) Mean: 0.75 mm3
B16-F10 syngeneic model; 10 mg/kg q.d. * 3W i.p., Day 5, RTV=Vt/V0
  Relative tumor volume Mean: 0.04
B16-F10 syngeneic model; 10 mg/kg q.d. * 3W i.p., Day 6 (estimated value)
  Tumor Sizes (mm3) Mean: 4.31 mm3
B16-F10 syngeneic model; 10 mg/kg q.d. * 3W i.p., Day 6, RTV=Vt/V0
  Relative tumor volume Mean: 0.19
B16-F10 syngeneic model; 10 mg/kg q.d. * 3W i.p., Day 8
  Tumor Sizes (mm3) Mean: 38.42 mm3
B16-F10 syngeneic model; 10 mg/kg q.d. * 3W i.p., Day 8, RTV=Vt/V0
  Relative tumor volume Mean: 1.00
B16-F10 syngeneic model; 10 mg/kg q.d. * 3W i.p., Day 11
  Tumor Sizes (mm3) Mean: 151.84 mm3
B16-F10 syngeneic model; 10 mg/kg q.d. * 3W i.p., Day 11, RTV=Vt/V0
  Relative tumor volume Mean: 4.80
B16-F10 syngeneic model; 10 mg/kg q.d. * 3W i.p., Day 11, calculated based on tumor volume of Day 8
  Tumor growth inhibition (%) TGI: 29%
B16-F10 syngeneic model; 10 mg/kg q.d. * 3W i.p., Day 13
  Tumor Sizes (mm3) Mean: 416.04 mm3
B16-F10 syngeneic model; 10 mg/kg q.d. * 3W i.p., Day 13, RTV=Vt/V0
  Relative tumor volume Mean: 12.93
B16-F10 syngeneic model; 10 mg/kg q.d. * 3W i.p., Day 13, calculated based on tumor volume of Day 8
  Tumor growth inhibition (%) TGI: 30%
B16-F10 syngeneic model; 10 mg/kg q.d. * 3W i.p., Day 15
  Tumor Sizes (mm3) Mean: 816.24 mm3
B16-F10 syngeneic model; 10 mg/kg q.d. * 3W i.p., Day 15, RTV=Vt/V0
  Relative tumor volume Mean: 26.76
B16-F10 syngeneic model; 10 mg/kg q.d. * 3W i.p., Day 15, calculated based on tumor volume of Day 8
  Tumor growth inhibition (%) TGI: 23%
B16-F10 syngeneic model; 10 mg/kg q.d. * 3W i.p., Day 18
  Tumor Sizes (mm3) Mean: 2500.45 mm3
B16-F10 syngeneic model; 10 mg/kg q.d. * 3W i.p., Day 18, RTV=Vt/V0
  Relative tumor volume Mean: 93.48
B16-F10 syngeneic model; 10 mg/kg q.d. * 3W i.p., Day 18, calculated based on tumor volume of Day 8
  Tumor growth inhibition (%) TGI: 11%
B16-F10 syngeneic model; 30 mg/kg q.d. * 3W i.p., Day 4 (estimated value)
  Tumor Sizes (mm3) Mean: 0.36 mm3
B16-F10 syngeneic model; 30 mg/kg q.d. * 3W i.p., Day 4, RTV=Vt/V0
  Relative tumor volume Mean: 0.01
B16-F10 syngeneic model; 30 mg/kg q.d. * 3W i.p., Day 5 (estimated value)
  Tumor Sizes (mm3) Mean: 0.56 mm3
B16-F10 syngeneic model; 30 mg/kg q.d. * 3W i.p., Day 5, RTV=Vt/V0
  Relative tumor volume Mean: 0.01
B16-F10 syngeneic model; 30 mg/kg q.d. * 3W i.p., Day 6 (estimated value)
  Tumor Sizes (mm3) Mean: 5.33 mm3
B16-F10 syngeneic model; 30 mg/kg q.d. * 3W i.p., Day 6, RTV=Vt/V0
  Relative tumor volume Mean: 0.16
B16-F10 syngeneic model; 30 mg/kg q.d. * 3W i.p., Day 8
  Tumor Sizes (mm3) Mean: 47.99 mm3
B16-F10 syngeneic model; 30 mg/kg q.d. * 3W i.p., Day 8, RTV=Vt/V0
  Relative tumor volume Mean: 1.00
B16-F10 syngeneic model; 30 mg/kg q.d. * 3W i.p., Day 11, RTV=Vt/V0
  Relative tumor volume Mean: 3.76
B16-F10 syngeneic model; 30 mg/kg q.d. * 3W i.p., Day 11, calculated based on tumor volume of Day 8
  Tumor growth inhibition (%) TGI: 26%
B16-F10 syngeneic model; 30 mg/kg q.d. * 3W i.p., Day 11, listed as MO-00005
  Tumor Sizes (mm3) Mean: 165.30 mm3 and 165.3 mm3
B16-F10 syngeneic model; 30 mg/kg q.d. * 3W i.p., Day 13
  Tumor Sizes (mm3) Mean: 376.62 mm3
B16-F10 syngeneic model; 30 mg/kg q.d. * 3W i.p., Day 13, RTV=Vt/V0
  Relative tumor volume Mean: 10.44
B16-F10 syngeneic model; 30 mg/kg q.d. * 3W i.p., Day 15
  Tumor Sizes (mm3) Mean: 794.11 mm3
B16-F10 syngeneic model; 30 mg/kg q.d. * 3W i.p., Day 15, RTV=Vt/V0
  Relative tumor volume Mean: 21.61
B16-F10 syngeneic model; 30 mg/kg q.d. * 3W i.p., Day 18
  Tumor Sizes (mm3) Mean: 2303.09 mm3
B16-F10 syngeneic model; 30 mg/kg q.d. * 3W i.p., Day 18, RTV=Vt/V0
  Relative tumor volume Mean: 63.87
B16-F10 syngeneic model; 100 mg/kg q.d. * 3W i.p. (group 6), Day 8, RTV=Vt/V0
  Relative tumor volume Mean: 1.00
B16-F10 syngeneic model; 100 mg/kg q.d. * 3W i.p. (group 6), Day 11, RTV=Vt/V0
  Relative tumor volume Mean: 3.70
B16-F10 syngeneic model; 100 mg/kg q.d. * 3W i.p. (group 6), Day 11, calculated based on tumor volume of Day 8
  Tumor growth inhibition (%) TGI: 29%
B16-F10 syngeneic model; 100 mg/kg q.d. * 3W i.p. (group 6), Day 11, listed as MO-00005
  Tumor Sizes (mm3) Mean: 155.10 mm3 and 155.1 mm3
B16-F10 syngeneic model; 100 mg/kg q.d. * 3W i.p. (group 6), Day 13
  Tumor Sizes (mm3) Mean: 335.85 mm3
B16-F10 syngeneic model; 100 mg/kg q.d. * 3W i.p. (group 6), Day 13, RTV=Vt/V0
  Relative tumor volume Mean: 7.98
B16-F10 syngeneic model; 100 mg/kg q.d. * 3W i.p. (group 6), Day 13, calculated based on tumor volume of Day 8
  Tumor growth inhibition (%) TGI: 46%
B16-F10 syngeneic model; 100 mg/kg q.d. * 3W i.p. (group 6), Day 15
  Tumor Sizes (mm3) Mean: 724.03 mm3
B16-F10 syngeneic model; 100 mg/kg q.d. * 3W i.p. (group 6), Day 15, RTV=Vt/V0
  Relative tumor volume Mean: 17.31
B16-F10 syngeneic model; 100 mg/kg q.d. * 3W i.p. (group 6), Day 15, calculated based on tumor volume of Day 8
  Tumor growth inhibition (%) TGI: 32%
B16-F10 syngeneic model; 100 mg/kg q.d. * 3W i.p. (group 6), Day 18
  Tumor Sizes (mm3) Mean: 2107.22 mm3
B16-F10 syngeneic model; 100 mg/kg q.d. * 3W i.p. (group 6), Day 18, RTV=Vt/V0
  Relative tumor volume Mean: 50.47
B16-F10 syngeneic model; 100 mg/kg q.d. * 3W i.p. (group 6), Day 18, calculated based on tumor volume of Day 8
  Tumor growth inhibition (%) TGI: 25%
B16-F10 syngeneic model; 100 mg/kg q.d. * 3W i.p. (group 6, randomized at tumor volume 35-60 mm^3), Day 8
  Tumor Sizes (mm3) Mean: 42.19 mm3
B16-F10 syngeneic model; high dose group, after 18 days of the experiment
  reduction of tumor weight compared to the control group: ~50%
B16-F10 syngeneic model; [2]
  anti-tumor activity against the B16-F10 syngeneic model (in words): anti-tumor response; also recorded: significant anti-tumor activity; also recorded: inhibits the growth of cancer
  efficacy on tumor weight (in words): significant efficacy on tumor weight
CYP3A4; probe midazolam
  inhibition at 10 µM: 41.3%
CYP3A4; probe testosterone
  inhibition at 10 µM: 2.22%
[1]
  IC50: 3.53 µM
